Where a SMILES comes first, the peptide text is derived from it.
Key:
[1] = test system: AVP (arg-vasopressin) levels of eye plexus plasma; experiment: Vasopressin release: AVP levels of eye plexus plasma (RIA); format: in vivo, Female Wistar rats; conditions: 10 μg per rat subcutaneously
Description: The effect of (2-9)-α-endorfine on AVP (arg-vasopressin) levels of eye plexus plasma was tested.
Female Wistar rats (140-160 g) were anaesthetized with ether for a strictly controlled period of 45 seconds. Samples of eye plexus blood were taken and stored in cooled plastic tubes to which heparin was added. The tubes were centrifuged at 4° C. in order to obtain the plasma. The immunoreactive AVP was directly measured in 20 μl of eye plexus plasma with the aid of RIA (radio-immuno-assay) methods.
The rats were treated with placebo or with 10 μg of (2-9)-α-endorfine per rat, injected subcutaneously.

rats = experiment: Apomorphine induced stereotyped sniffing; format: in vivo; conditions: for (Stereotyped) sniffing: after 1 h apomorphine 250 μg/kg s.c., tested 20 min later, measured for 4 min
Description: Subcutaneous treatment of rats with apomorphine (250 μg/kg) elicits hyperlocomotion and especially stereotyped sniffing behavoir. Increase of this stereotyped sniffing by pretreatment with the drug to be tested in considered to be an indication for dopaminergic activity.
Groups of rats were subcutaneously injected with placebo (0.5 ml saline), (2-9)-α-endorfine (50 μg) or (3-9)-α-endorfine (50 μg) and after 1 h. with apomorphine (250 μg/kg). An additional group of rats received two placebo (0.5 ml saline) injections. Twenty minutes after the last injection the rats were tested in a small open field and the duration of stereotyped sniffing was measured for 4 min.

[2] = pole-jumping test; delaying extinction of conditioned avoidance behavior; Pharmac. Ther. 16, 67, 1982; cited from earlier work

| Compound | AVP levels ([1]; 2 minutes after injection) [pg/mL] | AVP levels ([1]; 5 minutes after injection) [pg/mL] | AVP levels ([1]; 10 minutes after injection) [pg/mL] | (Stereotyped) sniffing (rats; pretreatment 50 μg s.c.) [s] | potentiation of apomorphine-induced stereotyped sniffing (rats; pretreatment 50 μg, apomorphine 250 μg/kg s.c.) | times less active than α-endorfine [2] [times] | (Stereotyped) sniffing (rats; placebo (0.5 ml saline) pretreatment) [s] |
| --- | --- | --- | --- | --- | --- | --- | --- |
| CSCC[C@H](NC(=O)[C@H](Cc1ccccc1)NC(=O)CNC(=O)CN)C(=O)N[C@H](C(=O)N[C@@H](CO)C(=O)N[C@@H](CCC(=O)O)C(=O)N[C@@H](CCCCN)C(=O)O)[C@@H](C)O [(2-9)-α-endorfine, H-Gly-Gly-L-Phe-L-Met-L-Thr-L-Ser-L-Glu-L-Lys-OH] (H-GGFMTSEK-OH) | 667 | 92 | 78 | 158.0 | potentiated | 10 |  |
| CN1CCc2cccc3c2[C@H]1Cc1ccc(O)c(O)c1-3 [apomorphine, reference compound] |  |  |  |  |  |  | 121.4 |

— patent US4593017A, “Methods of treating patients using a pharmaceutical preparation containing an α-endorfine fragment” (Akzo N.V., priority 1982, dated 1986)
